Measurements published in PubChem BioAssay AID1259411 (Chemical Carcinogenesis Research Information System (CCRIS), 2018).
Active and inactive are the calls of the source. How the calls were made is not given here.

Tested on: rodent carcinogenicity bioassays, tumor incidence
Assay: CCRIS carcinogenicity studies
Outline: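 Archive of carcinogenicity, mutagenicity, tumor promotion and tumor inhibition results drawn from journals, NCI reports and other sources, expert-reviewed; covers 1985-2011 and is no longer updated.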

Measured: carcinogen call

O=C1OC2(c3ccccc31)c1ccc(O)c(Br)c1Oc1c2ccc(O)c1Br
inactive: Species: MOUSE, Strain/Sex: ICR/FEMALE, Route: DERMAL, Dose: 0, 1 MG IN 0.1 ML DISTILLED WATER 2/WK FOR A MEAN TOTAL DOSE OF 136.5 MG (STUDY DURATION: 18 MO) inactive; negative | Species: MOUSE, Strain/Sex: ICR/MALE, Route: DERMAL, Dose: 0, 1 MG IN 0.1 ML DISTILLED WATER 2/WK FOR A MEAN TOTAL DOSE OF 136.5 MG (STUDY DURATION: 18 MO) inactive; negative

CC(O)CN(CC(C)O)N=O (configuration not stated)
active: Species: HAMSTER, Strain/Sex: SYRIAN/MALE,FEMALE, Route: SUBCUTANEOUS, Dose: 40 MG/KG IN SALINE ONCE, Tumor Site: Type of Lesion: PANCREAS: ADENOMA, ADENOCARCINOMA, INTRADUCTAL CARCINOMA active; positive | Species: HAMSTER, Strain/Sex: SYRIAN/MALE, Route: SUBCUTANEOUS, Dose: 25, 125, 250 MG/KG 1/WK FOR LIFE, Dose: 25, 125, 250 MG/KG 1/WK FOR LIFE, Tumor Site: Type of Lesion: PANCREAS, NASAL CAVITY, LUNG, LIVER, TRACHEA, LARYNX, Tumor Site: Type of Lesion: PANCREAS, NASAL CAVITY, LUNG, LIVER, TRACHEA, LARYNX active; positive | Species: HAMSTER, Strain/Sex: SYRIAN/MALE, Route: SUBCUTANEOUS, Dose: 250, 500, 1000 MG/KG IN OLIVE OIL 1/WK FOR 20 WK, Dose: 250, 500, 1000 MG/KG IN OLIVE OIL 1/WK FOR 20 WK, Tumor Site: Type of Lesion: PANCREAS: ADENOCARCINOMA active; positive | Species: HAMSTER, Strain/Sex: SYRIAN/MALE, Route: SUBCUTANEOUS, Dose: 250 MG/KG IN OLIVE OIL 1/WK FOR 25 WK, Tumor Site: Type of Lesion: PANCREAS: ADENOCARCINOMA active; positive | Species: MOUSE, Strain/Sex: ICR/FEMALE, Route: SUBCUTANEOUS, Dose: 0, 25, 50, 100 MG/KG BW ONCE ON DAYS 1 AND 8 OF AGE (STUDY DURATION: 50 WK), Dose: 0, 25, 50, 100 MG/KG BW ONCE ON DAYS 1 AND 8 OF AGE (STUDY DURATION: 50 WK), Tumor Site: Type of Lesion: LUNG: TUMOR, LIVER: TUMOR active; positive | Species: MOUSE, Strain/Sex: ICR/MALE, Route: SUBCUTANEOUS, Dose: 0, 25, 50, 100 MG/KG BW ONCE ON DAYS 1 AND 8 OF AGE (STUDY DURATION: 50 WK), Dose: 0, 25, 50, 100 MG/KG BW ONCE ON DAYS 1 AND 8 OF AGE (STUDY DURATION: 50 WK), Tumor Site: Type of Lesion: LUNG: TUMOR, LIVER: TUMOR active; positive | Species: MOUSE, Strain/Sex: STRAIN-DD/MALE, Route: ORAL, Dose: 100, 250, 500, 1000 PPM IN DRINKING WATER (DAILY INTAKE: 6.3-34.2 MG), Dose: 100, 250, 500, 1000 PPM IN DRINKING WATER (DAILY INTAKE: 6.3-34.2 MG), Tumor Site: Type of Lesion: LUNG: ADENOMA, ADENOCARCINOMA, LIVER: HEMANGIOMA, HEMANGIOENDOTHELIOMA, HEMANGIOENDOTHELIAL SARCOMA active; positive | Species: RAT, Strain/Sex: SPRAGUE-DAWLEY/FEMALE, Route: ORAL, Dose: 106 MG/L IN DRINKING WATER 5 DAY/WK FOR 30 WK (TOTAL DOSE: 318 MG), Tumor Site: Type of Lesion: LIVER: HEPATOCELLULAR CARCINOMA, CHOLANGIOCARCINOMA, HEMANGIOENDOTHELIAL SARCOMA active; positive | Species: RAT, Strain/Sex: SPRAGUE-DAWLEY/FEMALE, Route: ORAL, Dose: 108 MG/L IN DRINKING WATER 5 DAY/WK FOR 50 WK (TOTAL DOSE 540 MG), Tumor Site: Type of Lesion: NASAL TURBINATES: ADENOCARCINOMA, SQUAMOUS CELL CARCINOMA active; positive | Species: RAT, Strain/Sex: WISTAR/MALE, Route: INTRAPERITONEAL, Dose: 3, 4 G/KG ONCE, Tumor Site: Type of Lesion: LUNG: ADENOMA, ADENOCARCINOMA active; positive | Species: RAT, Strain/Sex: WISTAR/MALE, Route: ORAL, Dose: 100, 500 PPM IN DRINKING WATER FOR 25 WK, Tumor Site: Type of Lesion: LUNG: ADENOMA, ADENOCARCINOMA, SQUAMOUS CELL CARCINOMA active; positive | Species: RAT, Strain/Sex: WISTAR/MALE, Route: ORAL, Dose: 100, 500 PPM IN DRINKING WATER FOR 52 WK, Tumor Site: Type of Lesion: LUNG: ADENOMA, ADENOCARCINOMA, SQUAMOUS CELL CARCINOMA, LIVER: HEMANGIOMA, HEPATOCELLULAR CARCINOMA active; positive

Nc1ccccc1
active: Species: RAT, Strain/Sex: F344/FEMALE, Route: ORAL, Dose: 0, 0.3, 0.6% OF DIET, Dose: 0, 0.3, 0.6% OF DIET, Tumor Site: Type of Lesion: SPLEEN OR BODY CAVITIES (BOTH PLEURAL AND PERITONEAL): FIBROSARCOMA OR SARCOMA, NOS active; positive | Species: RAT, Strain/Sex: F344/FEMALE, Route: ORAL, Dose: 0, 3000, 6000 PPM IN DIET FOR 103 WK (STUDY DURATION: 108 WK), Dose: 0, 3000, 6000 PPM IN DIET FOR 103 WK (STUDY DURATION: 108 WK), Tumor Site: Type of Lesion: SPLEEN OR PERITONEUM: SARCOMA active; positive | Species: RAT, Strain/Sex: F344/MALE, Route: ORAL, Dose: 0, 0.3, 0.6% OF DIET, Dose: 0, 0.3, 0.6% OF DIET, Tumor Site: Type of Lesion: SPLEEN AND BODY CAVITIES (BOTH PLEURAL AND PERITONEAL): FIBROSARCOMA OR SARCOMA, NOS, HEMANGIOSARCOMA active; positive | Species: RAT, Strain/Sex: F344/MALE, Route: ORAL, Dose: 0, 3000, 6000 PPM IN DIET FOR 103 WK (STUDY DURATION: 108 WK), Dose: 0, 3000, 6000 PPM IN DIET FOR 103 WK (STUDY DURATION: 108 WK), Tumor Site: Type of Lesion: SPLEEN OR PERITONEUM: SARCOMA active; positive
inactive: Species: MOUSE, Strain/Sex: B6C3F1/FEMALE, Route: ORAL, Dose: 0, 0.6, 1.2% OF DIET, Dose: 0, 0.6, 1.2% OF DIET inactive; negative | Species: MOUSE, Strain/Sex: B6C3F1/MALE, Route: INTRAPERITONEAL, Dose: 0, 0.15 UMOL/G ONCE IN SODIUM ACETATE BUFFER (STUDY DURATION: 10 MO) inactive; negative | Species: MOUSE, Strain/Sex: B6C3F1/MALE, Route: ORAL, Dose: 0, 0.6, 1.2% OF DIET, Dose: 0, 0.6, 1.2% OF DIET inactive; negative

CC[C@H](OC(C)=O)C(C[C@H](C)N(C)C)(c1ccccc1)c1ccccc1
active: Species: RAT, Strain/Sex: F344/FEMALE, Route: ORAL, Dose: 0, 5.7, 16.6 MG/KG IN DIET FOR DURATION OF STUDY (STUDY DURATION: 24 MO), Dose: 0, 5.7, 16.6 MG/KG IN DIET FOR DURATION OF STUDY (STUDY DURATION: 24 MO), Tumor Site: Type of Lesion: LIVER: ADENOMA OR CARCINOMA, UTERUS: ENDOMETRIAL STROMAL POLYP active; positive | Species: RAT, Strain/Sex: F344/MALE, Route: ORAL, Dose: 0, 3.1, 9.7 MG/KG IN DIET FOR DURATION OF STUDY (STUDY DURATION: 24 MO), Dose: 0, 3.1, 9.7 MG/KG IN DIET FOR DURATION OF STUDY (STUDY DURATION: 24 MO), Tumor Site: Type of Lesion: LIVER: ADENOMA OR CARCINOMA active; positive
inactive: Species: MOUSE, Strain/Sex: B6C3F1/FEMALE, Route: ORAL, Dose: 0, 7.6, 30.1 MG/KG IN DIET FOR DURATION OF STUDY (STUDY DURATION: 24 MO), Dose: 0, 7.6, 30.1 MG/KG IN DIET FOR DURATION OF STUDY (STUDY DURATION: 24 MO) inactive; negative | Species: MOUSE, Strain/Sex: B6C3F1/MALE, Route: ORAL, Dose: 0, 7.6, 30.1 MG/KG IN DIET FOR DURATION OF STUDY (STUDY DURATION: 24 MO), Dose: 0, 7.6, 30.1 MG/KG IN DIET FOR DURATION OF STUDY (STUDY DURATION: 24 MO) inactive; negative

C#CC(C)(C)NC(=O)c1cc(Cl)cc(Cl)c1
active: Species: MOUSE, Strain/Sex: B6C3F1/MALE, Route: ORAL, Dose: 0, 20, 100, 500, 2500 PPM IN DIET FOR 12, 18 OR 24 MO (STUDY DURATION: 24 MO), Dose: 0, 20, 100, 500, 2500 PPM IN DIET FOR 12, 18 OR 24 MO (STUDY DURATION: 24 MO), Tumor Site: Type of Lesion: LIVER: HEPATOCELLULAR CARCINOMA OR ADENOMA active; positive

O=[N+]([O-])C1=Cc2cccc3cccc(c23)O1
active: Species: RAT, Strain/Sex: WISTAR/MALE, Route: SUBCUTANEOUS, Dose: 0, 0.5 MG IN DMSO 1/WK FOR DURATION OF STUDY (TOTAL DOSE: 0; 19.5 MG) (STUDY DURATION: 271 D), Dose: 0, 0.5 MG IN DMSO 1/WK FOR DURATION OF STUDY (TOTAL DOSE: 0; 19.5 MG) (STUDY DURATION: 271 D), Tumor Site: Type of Lesion: INJECTION SITE: FIBROSARCOMA active; positive
